This is an account of results in US6262017A, “Peptides for altering osteoblast adhesion” (Research Corporation Technologies, Inc., priority 1998, dated 2001).

Peptide text beside a SMILES is read from it.

Assay [1] has as its system osteoblasts. In words: Osteoblast four-hour adhesion on peptide-modified glass substrates. The class given is cell-based. An excerpt: Using standard protocols, 3-aminopropyltriethoxysilane was used to immobilize exposed amine groups on the surfaces of glass substrates, and 1-ethyl-3-(3dimethylaminopropyl)carbodimide was used to bind peptides having the sequence KRSRGGG (SEQ ID NO:4) to the exposed amine groups on the glass substrates.
(§1) Peptides were immobilized on substrate surfaces (borosilicate glass, 18 mm round coverslips; Fisher) using silane coupling techniques adapted from published protocols [Weetall Applied Biochem. Biotech. 41, 158-188 (1993); Robinson et al. Biochim. Biophys. Acta 242, 659-661 (1971); and Baum et al. Biochim. Biophys. Acta 268, 411-414 (1972)], the disclosures of which are incorporated herein by reference. Briefly, 3-aminopropyltriethoxysilane (Sigma) was allowed to react with hydroxyl groups on the material surfaces to produce "aminophase" substrates.
(§2) In preparing for peptide immobilization, borosilicate glass coverslips (Fisher) were etched for one hour in a 3:1 (v/v) solution of 2 N sulfuric acid and 2 N nitric acid, degreased in acetone and ethanol, and rinsed with distilled water. The degreased and acid-etched substrates were placed in glass petri dishes which had been previously cleaned with a 3.5% solution of 30% hydrogen peroxide in 18 M sulfuric acid.
(§3) The substrates were dried at 160° C. for at least one hour, rinsed with dry acetone, and immersed in 2% 3-aminopropyltriethoxysilane in dry acetone, supplemented with 2% triethylamine under an argon atmosphere at […] for one hour. The substrates were rinsed (under an argon atmosphere) once with methylene chloride and twice with dry acetone, and cured under argon at 120° C. for three hours.
(§4) Peptides were covalently bound to immobilized exposed amine groups on the substrate surfaces during a twenty-minute incubation (under argon) with a 25:25:1 (v/v/v) solution of peptide (0.1 mM in dry N,N-dimethylformamide):1-ethyl-3-(3-dimethylaminopropyl)carbodiimide (2.5 mg/mL in dry N,N-dimethylformamide): n-ethylmorpholine. Unreacted amine groups were passivated by soaking peptide-modified substrates in acetic anhydride for 5 minutes; absorbed peptides were then removed by soaking for 5 minutes in 4 M urea, rinsing in distilled water, and soaking for 5 minutes in 1 M sodium chloride. Peptide-modified substrates were then thoroughly rinsed in distilled water prior to sterilization and use.
Substrates which had been etched in a 3:1 (v/v) solution of 2 N sulfuric acid: 2 N nitric acid, degreased in acetone and ethanol, and rinsed copiously with distilled water were used as references. Glass substrates were sterilized via overnight ultraviolet irradiation prior to use in experiments.

The test system of assay [2] is bone marrow derived (BMD) osteoblast-like cells. As to the kind of experiment: Bone marrow-derived osteoblast-like cell four-hour adhesion on peptide-modified glass. Type of assay: cell-based. The settings on record: Table 2, peptide immobilized on glass.
From the text: as §1, §2
The substrates were dried at 160° C. for at least one hour, rinsed with dry acetone, and immersed in 2% 3-aminopropyltriethoxysilane in dry acetone, supplemented with 2% triethylamine under an argon atmosphere at […] for one hour. The substrates were rinsed (under an argon atmosphere) once with methylene chloride and twice with dry acetone, and cured under argon at 120° C. for three hours. […]

Assay [3] concerns BMD osteoclasts (bone-resorbing cells). As to the kind of experiment: Four-hour adhesion of Table 3 (title: BMD osteoblast-like cell; text: BMD osteoclasts) on peptide-modified glass. Type of assay: cell-based. The settings on record: for Cell density, Average: Table 3, four-hour adhesion, peptide immobilized on glass.
From the text: as §1, §2, §3
as §4, with “use. […]” for “use.”

In another assay the test system is endothelial cells. As to the kind of experiment: Endothelial cell four-hour adhesion on peptide-modified glass. Type of assay: cell-based. The settings on record: for Cell density, Average: four-hour adhesion, peptide immobilized on glass.
From the text: as §1, §2, §3, §4
(§5) In all experiments performed in the present invention, substrates which had been aminated but not peptide-grafted (i.e., aminophase substrates) were used as controls. Substrates which had been etched in a 3:1 (v/v) solution of 2 N sulfuric acid: 2 N nitric acid, degreased in acetone and ethanol, and rinsed copiously with distilled water were used as references. Glass substrates were sterilized via overnight ultraviolet irradiation prior to use in experiments.

Another assay has as its system calvarial osteoblasts. As to the kind of experiment: Calvarial osteoblast two-hour competitive adhesion on KRSRGGG-modified substrates after pre-incubation with soluble peptide. Type of assay: cell-based.
Assay [4] deals with BMD osteoblast-like cells. As to the kind of experiment: BMD osteoblast-like two-hour competitive adhesion on KRSRGGG-modified substrates. Type of assay: cell-based. Here is the method: The effect of pre-incubation of BMD osteoblast-like and osteoclast-like cells was also examined with similar results (Tables 8 and 9).
The subject of assay [5] is osteoblasts. As to the kind of experiment: Osteoblast four-hour adhesion in the absence and presence of 0.2 U/ml heparinase. Type of assay: cell-based. The settings on record: for Cell density, Average: Table 10, four-hour adhesion.
From the text: The heparinase used degrades heparan sulfate in a very selective manner.
as §1, §2, §3, §4, §5

A further assay has as its system fibroblasts. As to the kind of experiment: Fibroblast adhesion on peptide-modified surfaces. Type of assay: cell-based. The settings on record: surfaces modified with peptide.
The subject of assay [6] is osteoblasts. The settings on record: cultured for two weeks on peptide-modified Ti-6Al-4V.
From the text: In the present study, medical grade Ti-6Al-4V stock (ASTM F-136; Osteonics) was sectioned into coupons using a low-speed saw equipped with a diamond wafering blade. The metal coupons were then polished to a 30 micron finish via sanding (using 600 grit paper on a sanding wheel), polishing to a 15 micron finish and then to a 9 micron finish (using diamond spray on a polishing wheel), and finally polishing to a 3 micron finish using aluminum oxide (Al2 O3) mixed with 30% hydrogen peroxide on a polishing wheel), according to standard techniques. Polished metal coupons were degreased with acetone and ethanol and rinsed copiously with distilled water before peptides were immobilized on the metal surfaces (via the aforementioned techniques).
Where [7] appears, read: Table 1, peptide immobilized on glass.
[8] abbreviates: Table 6, KRSR peptides of different lengths on glass.
[9] abbreviates: Table 4 (second, identical print).
[10] abbreviates: Table 8, peptide concentration 0.5 mM.
Setting [11] is: Table 8, peptide concentration 1.0 mM.
[12] abbreviates: Table 8, peptide concentration 1.5 mM.
The mark [13] stands for this setting: Table 8, peptide concentration 2.0 mM.

As for `N=C(N)NCCC[C@H](NC(=O)[C@H](CO)NC(=O)[C@H](CCCNC(=N)N)NC(=O)[C@@H](N)CCCCN)C(=O)NCC(=O)NCC(=O)NCC(=O)O` [KRSRGGG, H-Lys-Arg-Ser-Arg-(Gly)3 --OH] (H-KRSRGGG-OH), the “Cell density, Average” value in the assay on osteoblasts [1] (setting [7]) came to 2145 Cells/cm^2; in the assay with osteoblasts [1] (setting [8]) it was 1770 Cells/cm^2; in assay [2], 2332 Cells/cm^2; in assay [3], 2377 Cells/cm^2; in the assay on endothelial cells (Table 4 (first print)), 1600 Cells/cm^2; with endothelial cells (setting [9]), 1600 Cells/cm^2. The “Cell density, Average” value in the assay with osteoblasts [5] (Heparinase 0.2 U/ml) amounted to 330 Cells/cm^2; in the assay with osteoblasts [5] (Heparinase none), 2145 Cells/cm^2. For the same compound, in assay [3] (peptide-modified surfaces), the “BMD osteoclast adhesion versus other treated or untreated surfaces (in words)” value is given as “in greater numbers”. Moreover, the “Endothelial cell adhesion to peptide-modified surfaces (in words)” value with endothelial cells (surfaces modified with peptide) was “do not adhere in significantly greater numbers”. Also, in the assay on calvarial osteoblasts, the “Effect of pre-incubation of osteoblasts with peptide on adhesion to KRSR-modified substrate (in words)” value was “significant decrease in adhesion”. In addition, the “Cell Adhesion expressed as % control” value in assay [4] (setting [10]) was determined as 81.63 % control; in [4] (setting [11]), 78.91 % control; in assay [4] (setting [12]), 66.67 % control; in assay [4] (setting [13]), 55.5 % control. Besides, the “Effect of heparinase treatment on osteoblast adhesion (in words)” value with osteoblasts [5] (heparinase treatment, peptide-modified substrate) is “significantly inhibited adhesion”. Also, in the assay with fibroblasts, the “Fibroblast adhesion to peptide-modified surfaces (in words)” value is reported as “do not adhere in significantly greater numbers”.
Turning to `N=C(N)NCCC[C@H](NC(=O)[C@H](CO)NC(=O)[C@H](CO)NC(=O)[C@@H](N)CCCCN)C(=O)NCC(=O)NCC(=O)NCC(=O)O` [KSSRGGG, Lysine-Serine-Serine-Arginine-Glycine-Glycine-Glycine, reference compound] (H-KSSRGGG-OH), the “Cell Adhesion expressed as % control” value in [4] (setting [10]) is on record as 109.52 % control; in assay [4] (setting [11]) it was 93.65 % control; in assay [4] (setting [12]), 101.59 % control; in assay [4] (setting [13]), 107.94 % control.
Take “Arginine-Aspartic Acid-Glycine-Serine [RDGS, reference compound]”: the “Cell density, Average” value was 1656 Cells/cm^2 in the assay on osteoblasts [1] (setting [7]); 1712 Cells/cm^2 in [2]; 2188 Cells/cm^2 in assay [3]; 1570 Cells/cm^2 in the assay with endothelial cells (Table 4 (first print)); 1570 Cells/cm^2 with endothelial cells (setting [9]); 378 Cells/cm^2 with osteoblasts [5] (Heparinase 0.2 U/ml). Besides, in the assay with osteoblasts [5] (Heparinase none), the “Cell density, Average” value amounted to 1656 Cells/cm^2. Besides, the “Osteoblast morphology and cytoskeletal organization” value in the assay with osteoblasts [6] was “normal morphology and cytoskeletal organization”.
With H-Lys-Arg-Ser-Arg-OH (H-KRSR-OH), the “Cell density, Average” value was determined as 1508 Cells/cm^2 with osteoblasts [1] (Table 5, KRSR vs HHWH on glass) and 1508 Cells/cm^2 with osteoblasts [1] (setting [8]).
For “Histidine-Histidine-Tryptophan-Histidine (HHWH) [reference compound]”, the “Cell density, Average” value in the assay with osteoblasts [1] (Table 5, KRSR vs HHWH on glass) is 1080 Cells/cm^2.
“KRSRQGGGGG [KRSR peptide of a different (longer) spacer length attached to the substrate]”: the “Cell density, Average” value with osteoblasts [1] (setting [8]) turned out to be 1708 Cells/cm^2.
